Reference: PubChem BioAssay AID248 (DTP/NCI, 2004)
“And” between values parts separate entries of the source, which are not always exact repeats. Identical values can stand only once. Toxic doses and inconclusive results are not listed. Cut-off read from the data, not from the text of the source: active = T/C of 150% or more; inactive = T/C below 125%.

System: L1210 leukemia ip in BDF1 mice, survival T/C
Assay: NCI In Vivo Anticancer Drug Screen. Data for tumor model L1210 Leukemia (intraperitoneal) in B6D2F1 (BDF1) mice
Settings: endpoint: mean survival time, higher = longer survival
Procedure, shortened: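 Value reflects the ratio of survival in compound-treated mice to survival in vehicle-treated controls, with both groups carrying the same transplanted tumor.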

[1] = dose: 100.0 mg/kg/injection, schedule: Q01DX009 (ip), vehicle: saline with Tween-80
[2] = dose: 100.0 mg/kg/injection, schedule: Q04DX002 (ip), vehicle: saline with Tween-80
[3] = dose: 200.0 mg/kg/injection, schedule: Q01DX009 (ip), vehicle: saline with Tween-80
[4] = dose: 200.0 mg/kg/injection, schedule: Q04DX002 (ip), vehicle: saline with Tween-80
[5] = dose: 400.0 mg/kg/injection, schedule: Q01DX009 (ip), vehicle: saline with Tween-80
[6] = dose: 400.0 mg/kg/injection, schedule: Q04DX002 (ip), vehicle: saline with Tween-80
[7] = dose: 100.0 mg/kg/injection, schedule: Q04DX002 (ip), vehicle: Klucel (hydroxypropylcellulose) (HPC)
[8] = dose: 200.0 mg/kg/injection, schedule: Q04DX002 (ip), vehicle: Klucel (hydroxypropylcellulose) (HPC)
[9] = dose: 400.0 mg/kg/injection, schedule: Q04DX002 (ip), vehicle: Klucel (hydroxypropylcellulose) (HPC)
[10] = dose: 50.0 mg/kg/injection, schedule: Q01DX009 (ip), vehicle: saline with Tween-80
[11] = dose: 100.0 mg/kg/injection, schedule: Q01DX009 (ip), vehicle: Klucel (hydroxypropylcellulose) (HPC)
[12] = dose: 200.0 mg/kg/injection, schedule: Q01DX009 (ip), vehicle: Klucel (hydroxypropylcellulose) (HPC)
[13] = dose: 400.0 mg/kg/injection, schedule: Q01DX009 (ip), vehicle: Klucel (hydroxypropylcellulose) (HPC)
[14] = dose: 100.0 mg/kg/injection, schedule: Q04DX003 (ip), vehicle: saline with Tween-80
[15] = dose: 200.0 mg/kg/injection, schedule: Q04DX003 (ip), vehicle: saline with Tween-80
[16] = dose: 100.0 mg/kg/injection, schedule: Q04DX002 (ip), vehicle: saline
[17] = dose: 400.0 mg/kg/injection, schedule: Q04DX003 (ip), vehicle: saline with Tween-80
[18] = dose: 100.0 mg/kg/injection, schedule: Q04DX003 (ip), vehicle: saline

Measured: T/C

CC1CN=C(c2ccc3ccccc3c2O)S1 (centres undefined)
inactive: dose: 100.0 mg/kg/injection, schedule: Q01DX005 (ip), vehicle: saline with Tween-80 90 % of control | [1] 113 % of control | [2] 103 % of control | dose: 200.0 mg/kg/injection, schedule: Q01DX005 (ip), vehicle: saline with Tween-80 90 % of control | [3] 90 % of control | [4] 96 % of control | [5] 94 % of control | [6] 103 % of control

O=C(Nc1ccc(C(=O)O)c(O)c1)c1ccccc1
inactive: dose: 100.0 mg/kg/injection, schedule: Q01DX001 (ip), vehicle: acetone 96 % of control | dose: 100.0 mg/kg/injection, schedule: Q04DX003 (ip), vehicle: saline sonified 98 % of control | dose: 200.0 mg/kg/injection, schedule: Q01DX001 (ip), vehicle: acetone 97 % of control | dose: 200.0 mg/kg/injection, schedule: Q04DX003 (ip), vehicle: saline sonified 101 % of control | dose: 400.0 mg/kg/injection, schedule: Q01DX001 (ip), vehicle: acetone 97 % of control | dose: 400.0 mg/kg/injection, schedule: Q04DX003 (ip), vehicle: saline sonified 101 % of control

CC1CCCCN1Cc1ccccc1COC(=O)c1ccc([N+](=O)[O-])cc1 (centres undefined)
inactive: [7] 90 % of control | [8] 104 % of control | [9] 114 % of control

O=[N+]([O-])c1ccc(NC(=S)Nc2cc([N+](=O)[O-])ccc2Cl)cc1
inactive: [10] 98 % of control | [1] 91 % of control | [3] 91 % of control

O=C(O)c1ccccc1Nc1ccccc1[N+](=O)[O-]
inactive: dose: 100.0 mg/kg/injection, schedule: Q01DX005 (ip), vehicle: Klucel (hydroxypropylcellulose) (HPC) 90 % of control | [11] 87 % of control | [7] 93 % of control | dose: 200.0 mg/kg/injection, schedule: Q01DX005 (ip), vehicle: Klucel (hydroxypropylcellulose) (HPC) 94 % of control | [12] 102 % of control | [8] 100 % of control | dose: 400.0 mg/kg/injection, schedule: Q01DX005 (ip), vehicle: Klucel (hydroxypropylcellulose) (HPC) 105 % of control | [13] 94 % of control | [9] 96 % of control

NC(=S)NNC(=S)S
inactive: [11] 98 % of control | [12] 98 % of control | [13] 109 % of control

CC(C)(C)c1cc([N+](C)(C)C)cc(C(C)(C)C)n1
inactive: dose: 6.25 mg/kg/injection, schedule: Q01DX001 (ip), vehicle: saline 97 % of control | dose: 12.5 mg/kg/injection, schedule: Q01DX001 (ip), vehicle: saline 112 % of control | dose: 25.0 mg/kg/injection, schedule: Q01DX001 (ip), vehicle: saline 105 % of control

O=c1[nH]ccc2c(O)cccc12
inactive: [10] 95 % of control | dose: 50.0 mg/kg/injection, schedule: Q04DX003 (ip), vehicle: saline with Tween-80 101 % of control | [1] 97 % of control | [14] 101 % of control | [3] 90 % of control | [15] 94 % of control

CC12CCC(Cl)(CC1)CC2=O
inactive: [16] 95 % of control | dose: 200.0 mg/kg/injection, schedule: Q04DX002 (ip), vehicle: saline 95 % of control | dose: 400.0 mg/kg/injection, schedule: Q04DX002 (ip), vehicle: saline 98 % of control

NC(=O)CC(NC(=O)OCc1ccccc1)C(=O)OCc1ccccc1 (centres undefined)
inactive: [1] 106 % of control | [14] 96 % of control | [3] 95 % of control | [15] 96 % of control | [5] 93 % of control | [17] 91 % of control

COc1ccc(C(=O)C(C)C(O)C(=O)O)c(O)c1C (centres undefined)
inactive: [1] 96 % of control | [18] 97 % of control | [3] 100 % of control | dose: 200.0 mg/kg/injection, schedule: Q04DX003 (ip), vehicle: saline 94 % of control | [5] 102 % of control | dose: 400.0 mg/kg/injection, schedule: Q04DX003 (ip), vehicle: saline 98 % of control

Cc1ccc(N2CCOC2=O)cc1N1CCOC1=O
inactive: dose: 25.0 mg/kg/injection, schedule: Q04DX003 (ip), vehicle: other 97 % of control | dose: 50.0 mg/kg/injection, schedule: Q04DX003 (ip), vehicle: other 104 % of control | dose: 100.0 mg/kg/injection, schedule: Q04DX003 (ip), vehicle: other 103 % of control | [14] 94 % of control

CCCn1c2c(c(=O)n(CC)c1=O)SC(OCC)C(=O)N2 (centres undefined)
inactive: dose: 78.0 mg/kg/injection, schedule: Q01DX Z (ip), vehicle: other 96 % of control and 103 % of control | dose: 116.0 mg/kg/injection, schedule: Q01DX Z (ip), vehicle: other 108 % of control and 110 % of control | dose: 175.0 mg/kg/injection, schedule: Q01DX Z (ip), vehicle: other 116 % of control and 87 % of control | dose: 262.5 mg/kg/injection, schedule: Q01DX Z (ip), vehicle: other 92 % of control

CCCCSP(=O)(SCCCC)c1ccccc1
inactive: dose: 100.0 mg/kg/injection, schedule: Q01DX001 (ip), vehicle: Klucel (hydroxypropylcellulose) (HPC) 100 % of control | dose: 200.0 mg/kg/injection, schedule: Q01DX001 (ip), vehicle: Klucel (hydroxypropylcellulose) (HPC) 102 % of control | dose: 400.0 mg/kg/injection, schedule: Q01DX001 (ip), vehicle: Klucel (hydroxypropylcellulose) (HPC) 95 % of control

CC(O)(C(=O)O)C(O)C(O)CO (centres undefined)
inactive: [2] 100 % of control | [4] 88 % of control | [6] 100 % of control

NC(CSc1ccc(Cl)cc1)C(=O)O (centres undefined)
inactive: dose: 100.0 mg/kg/injection, schedule: Q04DX003 (sc), vehicle: steriod suspending solution 86 % of control | dose: 200.0 mg/kg/injection, schedule: Q04DX003 (sc), vehicle: steriod suspending solution 86 % of control | dose: 400.0 mg/kg/injection, schedule: Q04DX003 (sc), vehicle: steriod suspending solution 92 % of control

Cc1cc(Cl)nc(Cl)c1C#N
inactive: [11] 101 % of control | dose: 100.0 mg/kg/injection, schedule: Q04DX003 (ip), vehicle: Klucel (hydroxypropylcellulose) (HPC) 100 % of control | [12] 97 % of control | dose: 200.0 mg/kg/injection, schedule: Q04DX003 (ip), vehicle: Klucel (hydroxypropylcellulose) (HPC) 89 % of control

Cc1nc(NN)c(C(N)=O)nc1C
inactive: dose: 25.0 mg/kg/injection, schedule: Q01DX009 (ip), vehicle: saline 98 % of control | dose: 25.0 mg/kg/injection, schedule: Q04DX003 (ip), vehicle: saline 101 % of control | dose: 50.0 mg/kg/injection, schedule: Q01DX009 (ip), vehicle: saline 96 % of control | dose: 50.0 mg/kg/injection, schedule: Q04DX003 (ip), vehicle: saline 103 % of control | [18] 104 % of control

O=C(N/N=C/c1ccccc1O)c1ccccc1O
inactive: [14] 95 % of control | [15] 92 % of control | [17] 93 % of control

C[S+]1CCC(N)C(=O)C1 (centres undefined)
inactive: dose: 12.5 mg/kg/injection, schedule: Q04DX002 (ip), vehicle: saline 103 % of control | dose: 25.0 mg/kg/injection, schedule: Q04DX002 (ip), vehicle: saline 120 % of control | dose: 50.0 mg/kg/injection, schedule: Q04DX002 (ip), vehicle: saline 113 % of control and 91 % of control | [16] 103 % of control
